Results from ChEMBL document CHEMBL1201862, “PubChem BioAssay data set” (2004).
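Where inhibition never reached the appropriate level, the endpoint shown equals the highest concentration tested. Otherwise, values were interpolated linearly from a five-concentration, 48-hour dose response in 96-well plates. At the GI50, growth is halved.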 Active and inactive are the calls of the source. No stated cut-off is given here; in the data, active = GI50 up to about 1.1 µM and inactive = higher.

Legend:
Assay in all cases: NCI tumour cell line growth inhibition, 48 h
[1] = tested on: 786-0
[2] = tested on: A498
[3] = tested on: A549
[4] = tested on: ACHN
[5] = tested on: BT-549
[6] = tested on: CAKI-1
[7] = tested on: CCRF-CEM
[8] = tested on: COLO 205
[9] = tested on: DU-145
[10] = tested on: EKVX
[11] = tested on: HCC 2998
[12] = tested on: HCT-116
[13] = tested on: HL-60
[14] = tested on: HOP-62
[15] = tested on: HOP-92
[16] = tested on: HT-29
[17] = tested on: Hs-578T
[18] = tested on: IGROV-1
[19] = tested on: K562
[20] = tested on: KM12
[21] = tested on: LOX IMVI
[22] = tested on: M14
[23] = tested on: MCF7
[24] = tested on: MDA-MB-231
[25] = tested on: MDA-MB-435
[26] = tested on: MOLT-4
[27] = tested on: Malme-3M
[28] = tested on: NCI-H226
[29] = tested on: NCI-H23
[30] = tested on: NCI-H522
[31] = tested on: NCI/ADR-RES
[32] = tested on: OVCAR-3
[33] = tested on: OVCAR-4
[34] = tested on: OVCAR-5
[35] = tested on: OVCAR-8
[36] = tested on: PC-3
[37] = tested on: RPMI-8226
[38] = tested on: RXF 393
[39] = tested on: SF-268
[40] = tested on: SF-295
[41] = tested on: SF-539
[42] = tested on: SK-MEL-28
[43] = tested on: SK-MEL-2
[44] = tested on: SK-MEL-5
[45] = tested on: SK-OV-3
[46] = tested on: SN12C
[47] = tested on: SNB-19
[48] = tested on: SNB-75
[49] = tested on: SR
[50] = tested on: SW-620
[51] = tested on: T47D
[52] = tested on: TK-10
[53] = tested on: U-251
[54] = tested on: UACC-257
[55] = tested on: UACC-62
[56] = tested on: UO-31
[57] = tested on: HCT-15
[58] = tested on: MDA-N
[59] = tested on: NCI-H460

O=C(/C=C/c1ccc2ccccc2c1)NCc1ccc(C(=O)NCc2ccccc2)cc1
GI50 [1]: 67.9 µM (inactive) | GI50 [2]: > 83.8 µM (inactive) | GI50 [3]: 65.5 µM (inactive) | GI50 [4]: > 68.7 µM (inactive) | GI50 [5]: 32.9 µM (inactive) | GI50 [6]: 28.3 µM (inactive) | GI50 [7]: > 93.3 µM (inactive) | GI50 [8]: > 100 µM (inactive) | GI50 [9]: > 100 µM (inactive) | GI50 [10]: > 100 µM (inactive) | GI50 [11]: > 37.2 µM (inactive) | GI50 [12]: > 100 µM (inactive) | GI50 [13]: 14.7 µM (inactive) | GI50 [14]: 14.2 µM (inactive) | GI50 [15]: > 100 µM (inactive) | GI50 [16]: 35.7 µM (inactive) | GI50 [17]: 37.9 µM (inactive) | GI50 [18]: > 70 µM (inactive) | GI50 [19]: > 31.6 µM (inactive) | GI50 [20]: > 100 µM (inactive) | GI50 [21]: > 100 µM (inactive) | GI50 [22]: > 100 µM (inactive) | GI50 [23]: > 83.6 µM (inactive) | GI50 [24]: > 100 µM (inactive) | GI50 [25]: > 100 µM (inactive) | GI50 [26]: > 66.7 µM (inactive) | GI50 [27]: > 35.8 µM (inactive) | GI50 [28]: 26.3 µM (inactive) | GI50 [29]: > 83.4 µM (inactive) | GI50 [30]: > 56.8 µM (inactive) | GI50 [31]: > 100 µM (inactive) | GI50 [32]: > 80.5 µM (inactive) | GI50 [33]: 8.53 µM (inactive) | GI50 [34]: > 100 µM (inactive) | GI50 [35]: 30.4 µM (inactive) | GI50 [36]: > 100 µM (inactive) | GI50 [37]: > 93.8 µM (inactive) | GI50 [38]: 41.8 µM (inactive) | GI50 [39]: 36.5 µM (inactive) | GI50 [40]: 34.4 µM (inactive) | GI50 [41]: 27.5 µM (inactive) | GI50 [42]: > 100 µM (inactive) | GI50 [43]: > 100 µM (inactive) | GI50 [44]: 98.9 µM (inactive) | GI50 [45]: > 100 µM (inactive) | GI50 [46]: > 100 µM (inactive) | GI50 [47]: 35.9 µM (inactive) | GI50 [48]: 19.6 µM (inactive) | GI50 [49]: > 100 µM (inactive) | GI50 [50]: > 100 µM (inactive) | GI50 [51]: > 36.3 µM (inactive) | GI50 [52]: > 100 µM (inactive) | GI50 [53]: > 60 µM (inactive) | GI50 [54]: > 100 µM (inactive) | GI50 [55]: 97.9 µM (inactive) | GI50 [56]: > 53.8 µM (inactive)

c1ccc2c(c1)ccc1nc(-c3ccc4c(c3)OCO4)c3c(c12)CCC3
GI50 [1]: > 100 µM (inactive) | GI50 [2]: > 100 µM (inactive) | GI50 [3]: 95.9 µM (inactive) | GI50 [4]: > 100 µM (inactive) | GI50 [5]: > 100 µM (inactive) | GI50 [6]: > 100 µM (inactive) | GI50 [7]: 74.5 µM (inactive) | GI50 [8]: 56.9 µM (inactive) | GI50 [10]: 89.3 µM (inactive) | GI50 [11]: 79.4 µM (inactive) | GI50 [12]: 88.9 µM (inactive) | GI50 [57]: 83.2 µM | GI50 [14]: > 100 µM (inactive) | GI50 [16]: 41.1 µM (inactive) | GI50 [17]: 55.8 µM (inactive) | GI50 [19]: 20.5 µM (inactive) | GI50 [20]: 34 µM (inactive) | GI50 [22]: > 100 µM (inactive) | GI50 [23]: 68.1 µM (inactive) | GI50 [24]: 67.5 µM (inactive) | GI50 [25]: 59.6 µM (inactive) | GI50 [58]: > 100 µM (inactive) | GI50 [26]: 42.8 µM (inactive) | GI50 [27]: > 100 µM (inactive) | GI50 [28]: > 100 µM (inactive) | GI50 [29]: 60.3 µM (inactive) | GI50 [59]: 45.3 µM (inactive) | GI50 [31]: 59.2 µM (inactive) | GI50 [32]: > 100 µM (inactive) | GI50 [33]: 57.1 µM (inactive) | GI50 [34]: > 100 µM (inactive) | GI50 [35]: 56.4 µM (inactive) | GI50 [36]: 56.4 µM (inactive) | GI50 [37]: 37.1 µM (inactive) | GI50 [39]: > 100 µM (inactive) | GI50 [40]: 77.4 µM (inactive) | GI50 [41]: > 100 µM (inactive) | GI50 [42]: > 100 µM (inactive) | GI50 [43]: > 100 µM (inactive) | GI50 [45]: > 100 µM (inactive) | GI50 [46]: > 100 µM (inactive) | GI50 [47]: > 100 µM (inactive) | GI50 [48]: > 100 µM (inactive) | GI50 [50]: > 100 µM (inactive) | GI50 [51]: 52.4 µM (inactive) | GI50 [53]: > 100 µM (inactive) | GI50 [54]: > 100 µM (inactive) | GI50 [55]: > 100 µM (inactive) | GI50 [56]: 78 µM (inactive)

COc1cc(Br)cc2c1O[C@H]1C(=O)CC3CC21CCN3C (some centres not stated)
GI50 [1]: 51.6 µM (inactive) | GI50 [2]: > 100 µM (inactive) | GI50 [3]: 94.4 µM (inactive) | GI50 [4]: 57.1 µM (inactive) | GI50 [5]: 48.4 µM (inactive) | GI50 [6]: 74.1 µM (inactive) | GI50 [7]: 4.09 µM (inactive) | GI50 [8]: 43.3 µM (inactive) | GI50 [10]: 61 µM (inactive) | GI50 [11]: 34.1 µM (inactive) | GI50 [12]: 42 µM (inactive) | GI50 [57]: 54.1 µM | GI50 [13]: 16.4 µM (inactive) | GI50 [14]: > 100 µM (inactive) | GI50 [16]: 42.2 µM (inactive) | GI50 [17]: 44.7 µM (inactive) | GI50 [18]: 30.8 µM (inactive) | GI50 [19]: 19.8 µM (inactive) | GI50 [20]: 72.3 µM (inactive) | GI50 [21]: 32.9 µM (inactive) | GI50 [22]: > 100 µM (inactive) | GI50 [23]: 34.1 µM (inactive) | GI50 [25]: 52.2 µM (inactive) | GI50 [58]: 66.2 µM (inactive) | GI50 [26]: 25 µM (inactive) | GI50 [27]: > 100 µM (inactive) | GI50 [29]: 24.3 µM (inactive) | GI50 [31]: 67.5 µM (inactive) | GI50 [32]: > 100 µM (inactive) | GI50 [34]: > 100 µM (inactive) | GI50 [35]: 19.7 µM (inactive) | GI50 [36]: 64 µM (inactive) | GI50 [37]: 21.8 µM (inactive) | GI50 [39]: 80 µM (inactive) | GI50 [40]: > 100 µM (inactive) | GI50 [41]: > 100 µM (inactive) | GI50 [42]: > 100 µM (inactive) | GI50 [43]: > 100 µM (inactive) | GI50 [44]: > 100 µM (inactive) | GI50 [45]: > 100 µM (inactive) | GI50 [47]: > 100 µM (inactive) | GI50 [49]: 33.9 µM (inactive) | GI50 [50]: 30.5 µM (inactive) | GI50 [51]: 23.2 µM (inactive) | GI50 [54]: 35.8 µM (inactive) | GI50 [55]: > 100 µM (inactive) | GI50 [56]: 34.9 µM (inactive)
